Measured values taken from patent publication US10508126B2, “Bisphosphonates vinylic monomers and polymers and uses thereof” (BAR-ILAN UNIVERSITY, priority 2012, dated 2019).

Assay: Inhibition of HAP dissolution (calcium in supernatant by ICP)
Assay type: physicochemical
Settings: compound 1 mM; supersaturated calcium phosphate, 0.05 M Tris pH 7.4, 37° C., 24 h
Procedure: The test based on a slightly modified method of Francis et al. (Francis, M. D. The inhibition of calcium hydroxyapatite crystal growth by polyphosphonates and polyphosphates. Calcif Tissue Res 1969, 3, 151-162). The extent of HAP formation in the presence of inhibitors was studied in supersaturated calcium phosphate solutions.
The final concentration of calcium (CaCl2.2H2O) and phosphate (K2HPO4) ions in the incubation solutions was 3.87 mM and 2.32 mM, respectively, yielding a molar ratio of [Ca]/[PO4]=1.67, as in hydroxyapatite (HAP). Each salt solution was prepared in 0.05 M Tris buffer, pH 7.4. The tested BP compound (1 mM) was dissolved in […]. 5 ml of 7.74 mM CaCl2.2H2O solution containing the BP compound and 5 ml of the 4.64 mM K2HPO4 were mixed in borosilicate glass vials (acid and acetone washed). The vials were then placed in a shaker at 37° C. for 24 h. The vials contents were centrifuged (4 min, 4000 rpm) and the supernatants were then separated and analyzed for calcium concentration by ICP Analysis.

**Q.** With `C=Cc1ccc(C(O)(P(=O)([O-])[O-])P(=O)([O-])O)cc1.[Na+].[Na+].[Na+]` [St-BP monomer, Trisodium hydroxyl (4-vinylphenyl) methelenebisphosphonic acid] as the compound, how does the “Calcium ions concentration in filtrate (% of initial concentration)” value read?
**A.** 45 % of initial concentration
